Data reported in patent US12570666B2, “Furoindazole derivatives” (Bayer Aktiengesellschaft, priority 2019, dated 2026).

Molecular target: T1, human GPR84 receptor (Homo sapiens, UniProt Q9NQS5)
T1 construct: frozen aliquots prepared by acCELLerate; host or cells: CHO-K1
Assay: cAMP HTRF assay for identification of cellular GPR84 antagonists
Assay type: cell-based
Conditions: CHO-K1 cells stably expressing human GPR84; Forskolin + agonist 6-OAU (EC80); average or median values
Summary of the method: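 IC50 came from 4-parameter fits over 20 μM–0.07 nM (11 points, duplicate), normalized between DMSO (0%) and agonist-free (100% inhibition) wells. Readout: cAMP-d2/Eu-cryptate HTRF in hGPR84 CHO-K1 cells given forskolin plus agonist, compound preincubated 30 min at room temperature.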

T1 sequence (Q9NQS5 whole entry): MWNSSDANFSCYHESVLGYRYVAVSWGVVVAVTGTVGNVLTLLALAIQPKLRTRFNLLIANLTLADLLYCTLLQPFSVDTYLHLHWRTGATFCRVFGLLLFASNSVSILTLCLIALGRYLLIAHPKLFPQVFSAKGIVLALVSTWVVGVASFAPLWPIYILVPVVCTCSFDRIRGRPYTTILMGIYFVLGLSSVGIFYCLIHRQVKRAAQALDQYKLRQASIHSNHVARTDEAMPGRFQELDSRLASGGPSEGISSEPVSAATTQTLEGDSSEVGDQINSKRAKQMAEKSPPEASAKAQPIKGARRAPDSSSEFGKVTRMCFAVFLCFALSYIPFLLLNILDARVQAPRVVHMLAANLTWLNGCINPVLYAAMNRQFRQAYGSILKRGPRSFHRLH

| SMILES | IC50 [nM] |
| --- | --- |
| Cc1cnc(CNC(=O)c2oc3c(c2C(F)(F)F)-c2nn(C[C@H]4COCCO4)cc2[C@H](C)C3)nc1 (single isomer, unassigned) [Example 303, (4R or 4S)-2-{[(2S)-1,4-dioxan-2-yl]methyl}-4-methyl-N-[(5-methylpyrimidin-2-yl)methyl]-8-(trifluoromethyl)-4,5-dihydro-2H-furo[2,3-g]indazole-7-carboxamide] | 6 |
| C[C@@H]1Cc2oc(C(=O)NCc3ncccn3)c(C(F)(F)F)c2-c2nn(C[C@H]3COCCO3)cc21 (single isomer, unassigned) [Example 304] | 13 |
| CC1COC(CNC(=O)c2oc3c(c2C(F)(F)F)-c2nn(C[C@H]4COCCO4)cc2[C@H](C)C3)C1 (single isomer, unassigned) [Example 313, 2,5-anhydro-1,3,4-trideoxy-1-{[(4R or 4S)-2-{[(2S)-1,4-dioxan-2-yl]methyl}-4-methyl-8-(trifluoromethyl)-4,5-dihydro-2H-furo[2,3-g]indazole-7-carbonyl]amino}-4-methylpentitol] | 21 |
| C[C@@H]1Cc2oc(C(=O)NCc3cn(C)cn3)c(C(F)(F)F)c2-c2nn(C[C@H]3COCCO3)cc21 (single isomer, unassigned) [Example 314, (4R or 4S)-2-{[(2S)-1,4-dioxan-2-yl]methyl}-4-methyl-N-[(1-methyl-1H-imidazol-4-yl)methyl]-8-(trifluoromethyl)-4,5-dihydro-2H-furo[2,3-g]indazole-7-carboxamide] | 40 |
| Cc1cccc(CNC(=O)c2oc3c(c2C(F)(F)F)-c2nn(C[C@H]4COCCO4)cc2[C@H](C)C3)n1 (single isomer, unassigned) [Example 315, (4R or 4S)-2-{[(2S)-1,4-dioxan-2-yl]methyl}-4-methyl-N-[(6-methylpyridin-2-yl)methyl]-8-(trifluoromethyl)-4,5-dihydro-2H-furo[2,3-g]indazole-7-carboxamide] | 266 |
| C[C@@H]1Cc2oc(C(=O)NCc3cncs3)c(C(F)(F)F)c2-c2nn(C[C@H]3COCCO3)cc21 (single isomer, unassigned) [Example 316, (4R or 4S)-2-{[(2S)-1,4-dioxan-2-yl]methyl}-4-methyl-N-[(1,3-thiazol-5-yl)methyl]-8-(trifluoromethyl)-4,5-dihydro-2H-furo[2,3-g]indazole-7-carboxamide] | 374 |
| C[C@@H]1Cc2oc(C(=O)NCc3cnc(C4CC4)cn3)c(C(F)(F)F)c2-c2nn(C[C@H]3COCCO3)cc21 (single isomer, unassigned) [Example 322, (4R or 4S)—N-[(5-cyclopropylpyrazin-2-yl)methyl]-2-{[(2S)-1,4-dioxan-2-yl]methyl}-4-methyl-8-(trifluoromethyl)-4,5-dihydro-2H-furo[2,3-g]indazole-7-carboxamide] | 2 |
| C[C@@H]1Cc2oc(C(=O)NCc3cnc(Cl)cn3)c(C(F)(F)F)c2-c2nn(C[C@H]3COCCO3)cc21 (single isomer, unassigned) [Example 323, (4R or 4S)—N-[(5-chloropyrazin-2-yl)methyl]-2-{[(2S)-1,4-dioxan-2-yl]methyl}-4-methyl-8-(trifluoromethyl)-4,5-dihydro-2H-furo[2,3-g]indazole-7-carboxamide] | 3 |
| O=C(NC[C@@H]1CCCO1)c1cc2c(o1)CCc1cn(Cc3ccccn3)nc1-2 [Example 1, 2-(pyridin-2-ylmethyl)-N-[(2S)-tetrahydrofuran-2-ylmethyl]-4,5-dihydro-2H-furo[2,3-g]indazole-7-carboxamide] | 1000 |
| Cc1ccc(CNC(=O)c2oc3c(c2C)-c2nn(Cc4ccccn4)cc2CC3)cc1 [Example 2, 8-methyl-N-[(4-methylphenyl)methyl]-2-[(pyridin-2-yl)methyl]-4,5-dihydro-2H-furo[2,3-g]indazole-7-carboxamide] | 78 |
| Cc1c(C(=O)NC[C@H]2CCCO2)oc2c1-c1nn(Cc3ccccn3)cc1CC2 [Example 3-1, 8-methyl-2-(pyridin-2-ylmethyl)-N-[(2R)-tetrahydrofuran-2-ylmethyl]-4,5-dihydro-2H-furo[2,3-g]indazole-7-carboxamide] | 1160 |
| Cc1c(C(=O)NCCN2CCN(C)CC2)oc2c1-c1nn(Cc3ccccn3)cc1CC2 [Example 4, 8-methyl-N-[2-(4-methylpiperazin-1-yl)ethyl]-2-(pyridin-2-ylmethyl)-4,5-dihydro-2H-furo[2,3-g]indazole-7-carboxamide] | 1620 |
| Cc1c(C(=O)NCc2ncon2)oc2c1-c1nn(Cc3ccccn3)cc1CC2 [Example 5] | 1410 |
| Cc1c(C(=O)NCc2ccon2)oc2c1-c1nn(Cc3ccccn3)cc1CC2 [Example 6, 8-methyl-N-(1,2-oxazol-3-ylmethyl)-2-(pyridin-2-ylmethyl)-4,5-dihydro-2H-furo[2,3-g]indazole-7-carboxamide] | 800 |
| Cc1c(C(=O)NCc2cc(C3CC3)on2)oc2c1-c1nn(Cc3ccccn3)cc1CC2 [Example 7, N-[(5-cyclopropyl-1,2-oxazol-3-yl)methyl]-8-methyl-2-(pyridin-2-ylmethyl)-4,5-dihydro-2H-furo[2,3-g]indazole-7-carboxamide] | 150 |
| Cc1cc(CNC(=O)c2oc3c(c2C)-c2nn(Cc4ccccn4)cc2CC3)no1 [Example 8, 8-methyl-N-[(5-methyl-1,2-oxazol-3-yl)methyl]-2-(pyridin-2-ylmethyl)-4,5-dihydro-2H-furo[2,3-g]indazole-7-carboxamide] | 210 |
| Cc1c(C(=O)NCC(C)(C)O)oc2c1-c1nn(Cc3ccccn3)cc1CC2 [Example 10, N-(2-hydroxy-2-methylpropyl)-8-methyl-2-(pyridin-2-ylmethyl)-4,5-dihydro-2H-furo[2,3-g]indazole-7-carboxamide] | > 20000 |
| Cc1c(C(=O)NCc2cc(CN3CCOCC3)on2)oc2c1-c1nn(Cc3ccccn3)cc1CC2 [Example 11, 8-methyl-N-{[5-(morpholin-4-ylmethyl)-1,2-oxazol-3-yl]methyl}-2-(pyridin-2-ylmethyl)-4,5-dihydro-2H-furo[2,3-g]indazole-7-carboxamide] | > 20000 |
| Cc1c(C(=O)NCCN2CCN(c3ccc(C(F)(F)F)cn3)CC2)oc2c1-c1nn(Cc3ccccn3)cc1CC2 [Example 12, 8-methyl-2-(pyridin-2-ylmethyl)-N-(2-{4-[5-(trifluoromethyl)pyridin-2-yl]piperazin-1-yl}ethyl)-4,5-dihydro-2H-furo[2,3-g]indazole-7-carboxamide] | 2760 |
| Cc1c(C(=O)NCCN2CCN(c3cccc(C(F)(F)F)c3)CC2)oc2c1-c1nn(Cc3ccccn3)cc1CC2 [Example 13, 8-methyl-2-(pyridin-2-ylmethyl)-N-(2-{4-[3-(trifluoromethyl)phenyl]piperazin-1yl}ethyl)-4,5-dihydro-2H-furo[2,3-g]indazole-7-carboxamide] | 1650 |
| COc1cccc(-c2cc(CNC(=O)c3oc4c(c3C)-c3nn(Cc5ccccn5)cc3CC4)no2)c1 [Example 14, N-{[5-(3-methoxyphenyl)-1,2-oxazol-3-yl]methyl}-8-methyl-2-(pyridin-2-ylmethyl)-4,5-dihydro-2H-furo[2,3-g]indazole-7-carboxamide] | 4790 |
| Cc1nonc1CNC(=O)c1oc2c(c1C)-c1nn(Cc3ccccn3)cc1CC2 [Example 15, 8-methyl-N-[(4-methyl-1,2,5-oxadiazol-3-yl)methyl]-2-(pyridin-2-ylmethyl)-4,5-dihydro-2H-furo[2,3-g]indazole-7-carboxamide] | 2000 |
| Cc1c(C(=O)NCc2cnoc2C2CC2)oc2c1-c1nn(Cc3ccccn3)cc1CC2 [Example 16, N-[(5-cyclopropyl-1,2-oxazol-4-yl)methyl]-8-methyl-2-(pyridin-2-ylmethyl)-4,5-dihydro-2H-furo[2,3-g]indazole-7-carboxamide] | 11200 |
| Cc1c(C(=O)NCc2cc(-c3ccccc3Cl)on2)oc2c1-c1nn(Cc3ccccn3)cc1CC2 [Example 17, N-{[5-(2-chlorophenyl)-1,2-oxazol-3-yl]methyl}-8-methyl-2-(pyridin-2-ylmethyl)-4,5-dihydro-2H-furo[2,3-g]indazole-7-carboxamide] | 10100 |
| Cc1c(C(=O)NCc2cc(C(C)C)on2)oc2c1-c1nn(Cc3ccccn3)cc1CC2 [Example 18, N-[(5-isopropyl-1,2-oxazol-3-yl)methyl]-8-methyl-2-(pyridin-2-ylmethyl)-4,5-dihydro-2H-furo[2,3-g]indazole-7-carboxamide] | 97 |
| Cc1c(C(=O)NC[C@@H]2COCCO2)oc2c1-c1nn(Cc3ccccn3)cc1CC2 [Example 19-1, N-[(2R)-1,4-dioxan-2-ylmethyl]-8-methyl-2-(pyridin-2-ylmethyl)-4,5-dihydro-2H-furo[2,3-g]indazole-7-carboxamide] | 64 |
| Cc1c(C(=O)NC[C@H]2COCCO2)oc2c1-c1nn(Cc3ccccn3)cc1CC2 [Example 19-2, N-{[(2S)-1,4-dioxan-2-yl]methyl}-8-methyl-2-[(pyridin-2-yl)methyl]-4,5-dihydro-2H-furo[2,3-g]indazole-7-carboxamide] | 830 |
| Cc1c(C(=O)NCc2nnc[nH]2)oc2c1-c1nn(Cc3ccccn3)cc1CC2 [Example 20, 8-methyl-2-(pyridin-2-ylmethyl)-N-(4H-1,2,4-triazol-3-ylmethyl)-4,5-dihydro-2H-furo[2,3-g]indazole-7-carboxamide] | 5070 |
| Cc1c(C(=O)NCc2ccccn2)oc2c1-c1nn(Cc3ccccn3)cc1CC2 [Example 21, 8-methyl-N,2-bis(pyridin-2-ylmethyl)-4,5-dihydro-2H-furo[2,3-g]indazole-7-carboxamide] | 300 |
| Cc1c(C(=O)NCc2cc[nH]n2)oc2c1-c1nn(Cc3ccccn3)cc1CC2 [Example 22, 8-methyl-N-(1H-pyrazol-3-ylmethyl)-2-(pyridin-2-ylmethyl)-4,5-dihydro-2H-furo[2,3-g]indazole-7-carboxamide] | 340 |
